Reference: patent publication US8242089B2, “Sphingolipids polyalkylamine conjugates for use in transfection” (Yissum Research Development Company of the Hebrew …, priority 2003, dated 2012)

System: NIH 3T3 cells
Assay: Methylene blue toxicity assay on NIH 3T3 cells
Format: cell-based
Details: amounts used in transfection, free assemblies or lipoplexes with luciferase plasmid, lipid/DNA charge ratios 1-16, chloride form
Protocol: Cytotoxicity was tested by the methylene blue (MB) staining assay [Elliott W M and Auersperg N. Biotech Histochem 68:29-35 (1993)]. In general, a known number of exponentially growing cells in 200 μL of medium were plated in 96-microwell, flat-bottomed plates. For each of the lipoplexes tested, 3 wells were used. Following 24 h of incubation in culture, 20 μL of different concentrations of various lipoplexes were added to each well containing untreated cells. Normal saline was added to the controls. Cells were exposed to lipoplex for 24 h. At the end of exposure the treated cells, as well as parallel control cells were washed and fixed by adding 50 μL of 2.5% glutaraldehyde to each well for 15 min. Fixed cells were rinsed 10 times with deionized water and once with borate buffer (0.1 M, pH 8.5), dried, and stained with MB (100 μL of 1% solution in 0.1 M borate buffer, pH 8.5) for 1 h at r. t. Stained cells were rinsed thoroughly with de-ionized water to remove any non-cell-bound dye and then dried. The MB bound to the fixed cells was extracted by incubation at 37° C. with 200 μL of 0.1 N HCl for 1 h, and the net optical density of the dye in each well was determined by a plate spectrophotometer (Labsystems Multyskan Bichromatic, Finland) at 620 nm.

Structure (SMILES): CCCCCCCCCCCCC/C=C/[C@@H](O)[C@H](COC(=O)NCCCNCCCCNCCCN)NC(=O)CCCCCCCCCCCCCCC [CCS, N-palmitoyl D-erythro sphingosyl carbamoyl-spermine]
- toxicity (living cells): non toxic
